Assay results taken from BindingDB's records for doi:10.1021/cb900232a (Stanford University, 2010).

How the values were obtained:
Experiment in all cases: Enzyme kinetic assay
[1] = target: T1, Procathepsin L (Mus musculus, UniProt P06797); details: pH 6.25; 25 °C
T1 sequence (P06797 whole entry): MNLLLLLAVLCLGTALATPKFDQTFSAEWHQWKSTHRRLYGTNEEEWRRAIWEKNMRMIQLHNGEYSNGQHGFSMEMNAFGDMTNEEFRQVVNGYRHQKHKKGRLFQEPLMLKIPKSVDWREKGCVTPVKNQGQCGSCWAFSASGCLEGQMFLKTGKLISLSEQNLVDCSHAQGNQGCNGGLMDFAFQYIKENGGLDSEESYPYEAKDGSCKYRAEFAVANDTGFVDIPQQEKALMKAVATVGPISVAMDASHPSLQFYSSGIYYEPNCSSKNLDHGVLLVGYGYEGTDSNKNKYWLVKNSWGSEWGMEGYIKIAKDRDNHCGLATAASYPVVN
Description: (§1) IC50 measurements and enzyme kinetics assays were performed on a Spectramax M5 fluorescent plate reader (Molecular Devices).

[2] = target: Cathepsin B (Mus musculus, UniProt P10605); details: pH 6.25; 25 °C
Description: as §1

[3] = target: T2, Caspase-3 (Mus musculus, UniProt P70677); details: pH 7.4; 25 °C
T2 sequence (P70677 whole entry): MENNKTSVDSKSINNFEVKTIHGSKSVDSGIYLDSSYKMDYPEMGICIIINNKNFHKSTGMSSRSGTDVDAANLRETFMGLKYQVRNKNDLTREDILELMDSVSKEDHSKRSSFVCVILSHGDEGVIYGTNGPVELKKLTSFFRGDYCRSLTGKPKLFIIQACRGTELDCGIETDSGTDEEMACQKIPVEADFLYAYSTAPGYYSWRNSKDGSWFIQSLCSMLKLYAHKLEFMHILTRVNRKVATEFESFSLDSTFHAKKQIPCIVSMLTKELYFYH
Description: as §1

[4] = target: T3, Legumain (Mus musculus, UniProt O89017); details: pH 5.8; 25 °C
T3 sequence (O89017 whole entry): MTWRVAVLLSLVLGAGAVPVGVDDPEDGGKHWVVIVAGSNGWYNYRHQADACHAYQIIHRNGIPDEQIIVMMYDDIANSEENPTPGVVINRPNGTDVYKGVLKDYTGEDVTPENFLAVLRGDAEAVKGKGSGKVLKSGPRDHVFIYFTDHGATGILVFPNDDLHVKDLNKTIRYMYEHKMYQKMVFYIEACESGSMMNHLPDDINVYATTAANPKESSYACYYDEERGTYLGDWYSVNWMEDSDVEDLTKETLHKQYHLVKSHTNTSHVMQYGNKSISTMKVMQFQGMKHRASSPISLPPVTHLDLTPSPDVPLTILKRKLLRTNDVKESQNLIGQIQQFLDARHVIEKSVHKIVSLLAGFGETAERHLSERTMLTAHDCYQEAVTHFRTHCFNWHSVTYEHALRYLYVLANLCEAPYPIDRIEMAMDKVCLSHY
Description: as §1

Cathepsin B, sequence (P10605 whole entry): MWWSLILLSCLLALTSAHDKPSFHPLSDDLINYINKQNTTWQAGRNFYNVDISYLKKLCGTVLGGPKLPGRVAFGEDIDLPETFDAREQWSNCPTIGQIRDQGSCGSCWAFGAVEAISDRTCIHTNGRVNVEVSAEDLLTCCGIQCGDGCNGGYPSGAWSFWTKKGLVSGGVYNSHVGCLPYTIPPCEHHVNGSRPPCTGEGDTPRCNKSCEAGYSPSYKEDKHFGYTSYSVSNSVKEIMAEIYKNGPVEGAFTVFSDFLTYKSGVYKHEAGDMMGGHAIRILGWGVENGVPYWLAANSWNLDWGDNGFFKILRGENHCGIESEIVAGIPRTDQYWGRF

Structure (SMILES)	IC50 [1] [µM]	IC50 [2] [µM]	IC50 [3] [µM]	IC50 [4] [µM]
CCOC(=O)[C@H]1O[C@@H]1C(=O)N[C@H](C(=O)NCCc1ccc(O)cc1)C(C)CC (stereo partly specified) [CID644294]	2.98	0.78	–	–
CCOC(=O)[C@H]1O[C@@H]1C(=O)N(CC(N)=O)NC(=O)[C@@H]1CCCN1C(C)=O [LI-1]	220	390	890	0.0115
